“Also recorded” adds a separate entry of the source.
How the values were obtained:
[1] = tested on: dopaminergic neuron cell bodies of subtantia nigra pars compacta; test: Quantification of TH positive neurons in substantia nigra after 6-OHDA lesion; type: in vivo, rat; conditions: FIG. 16A: BCL-ACP 3.75 and 0.25 mg/kg bid; L-DOPA 8 mg/kg with benserazide 12.5 mg/kg; vs non-treated 6-OHDA rats
Procedure: (§1) Wistar rats (5 weeks) were used after an acclimatization period of at least 5 days. Surgery was performed under ketamine (50 mg/kg) and xylazine (10 mg/kg). Animals received an unilateral injection of 12 μg of 6-OHDA (sigma Aldrich) dissolved in 6 μl of 0.9% sterile NaCl containing 0.1% ascorbic acid (to protect 6-OHDA from oxidation), at the flow rate of 1 μl/min, in the left substantia nigra pars compacta. The stereotaxic coordinates of the injection site will be: anteroposterior+2.2 mm, lateral 2.0 mm, dorsoventral+3 mm with the incisor bar at +5.0 mm above the interaural plane, according to the rat stereotaxic atlas by De Groot (1959).
(§2) The first administration of treatment or vehicle has been performed the day before the stereotaxic injection of 6-OHDA (for the lesion groups) or vehicle and all along the 15 days preceding the behavioral tests. […] During the study and for each animal, the volume of per os administrations was determined on the basis of the mean body weight of the animals of the corresponding group. Body weights will be determined twice a week and the volume of administration will thus be adjusted consequently. […]
TH positive neurons were counted in a set of the three sections centered on the track of the 6-OHDA injection needle in the SN, covering almost all the SN. […] Cell counted is done using a microscope connected to a computer image analysis system by a CDD camera.

[2] = tested on: dopaminergic neuronal terminals in the left striatum; test: [3H]-mazindol labelling of dopaminergic terminals in striatum after 6-OHDA lesion; type: in vivo, rat; conditions: FIG. 16B: BCL-ACP 3.75 and 0.25 mg/kg bid; L-DOPA 8 mg/kg with benserazide 12.5 mg/kg; vs non-treated 6-OHDA rats
Procedure: as §1, §2
The loss of DA terminals in the striatum was assessed as an index of the extent of the dopaminergic denervation by analysis of [^3H]-mazindol binding to dopamine uptake sites. […]

N[C@@H](Cc1ccc(O)c(O)c1)C(=O)O [L-DOPA, levodopa] was tested, and the “number of dopaminergic neurons in the left (intoxicated) part of SN” value [1] was “failed to inhibit; also recorded: not observed” and the “density of dopaminergic neuronal terminals in the left striatum (OD of [3H]-mazindol labelling)” value [2] was “failed to inhibit; also recorded: not observed”.
